Results as given in patent US12171901B2, “Powdered collagen wound care compositions” (priority 2021, dated 2024).
Where “and” joins values, the source holds several entries; their conditions need not be identical. Equal values may be shown once.

System: skin of female albino New Zealand White rabbits
Assay: Rabbit skin irritation
Protocol: Within 24 hours to 4 hours before test application, the backs of female albino New Zealand White rabbits were clipped free of hair, exposing 2 test and 2 control areas on each side of the spine with a size of approximately 15 cm×15 cm. The two test sites are located on the left cranial section and the right caudal section of the dorsal region. The two control sites are located on the left caudal and right cranial section of the dorsal region. FIG. 2 depicts the arrangement of test and control sites. The exposed skin is wiped with alcohol and dried. Rabbits of acceptable skin quality were selected and used for testing.
A 25×25 mm gauze patch saturated with 0.5 mL of 0.9% NaCl is used for the control and applied to the clipped control sites. The patches are secured using hypoallergenic, waterproof, surgical tape over the test and control sites. The animal's trunk is securely wrapped so as to maintain the position of the patches. Patches are left applied for a minimum of four hours.
After patch removal, the test and control sites were then scored for erythema and edema at 1, 24, 48 and 72 hours after patch removal. Only the 24, 48, and 72 hour observations were scored and used for calculations. If no response was expected, testing was conducted using three animals per test article. If irritation was anticipated, one animal was tested initially. If the first animal received a score of 2 or less for either erythema or edema, 2 additional rabbits were used to conclude the test.
This total was divided by the total number of observations. The same was done for the control sites. […] These scores for each animal were added and divided by the total number of animals to give the Primary Irritation Index. […] For any response, the Maximum Irritation Response, the time of onset of the response and the time of maximum response was recorded.
To positively validate the test, 10% sodium dodecyl sulfate (SDS), which is a known dermal irritant, in petroleum jelly was applied to a 2.5 cm×2.5 cm gauze patch. As a negative control, 0.5 mL of 0.9% NaCl was applied to a 2.5 cm×2.5 cm gauze patch. A Primary Irritation Index in the moderate to severe range is considered a positive result. The test system and methods utilized were the same as described above.

[1] = per rabbit, 24, 48 and 72 hour observations after patch removal, direct application, sulfate

CCCCCCCCCCCCOS(=O)(=O)[O-].[Na+] [10% SDS, sodium dodecyl sulfate]
Primary Irritation Index (3 animals): 6.4
Total Average (sum over animals) (3 animals): 19.3
ED (edema) score sum [1]: 19 and 21 and 14
ER (erythema) score sum [1]: 21 and 23 and 18
ER + ED = Total [1]: 40 and 44 and 32
